Source: patent US10562912B2 (C&C Research Laboratories, priority 2013, dated 2020)

Columns and labels:
Format in all cases: cell-based
LNCaP = experiment: Cell growth inhibition assay, prostate cancer cell line LNCaP (medium with 10 ng/mL IL-6); details: Homo sapiens, medium supplemented with 10 ng/mL of IL-6, 10,000 cells/well
STAT3 = molecular target: T1, STAT3 (Homo sapiens, UniProt P40763); experiment: STAT3 reporter gene assay (luciferase), LNCaP stable cell line (pSTAT3-TA-luc), IL-6 stimulation
T1 construct: plasmid pSTAT3-TA-luc), which contains a stably operating STAT3 promoter; endogenous in cells
T1 sequence (P40763 whole entry): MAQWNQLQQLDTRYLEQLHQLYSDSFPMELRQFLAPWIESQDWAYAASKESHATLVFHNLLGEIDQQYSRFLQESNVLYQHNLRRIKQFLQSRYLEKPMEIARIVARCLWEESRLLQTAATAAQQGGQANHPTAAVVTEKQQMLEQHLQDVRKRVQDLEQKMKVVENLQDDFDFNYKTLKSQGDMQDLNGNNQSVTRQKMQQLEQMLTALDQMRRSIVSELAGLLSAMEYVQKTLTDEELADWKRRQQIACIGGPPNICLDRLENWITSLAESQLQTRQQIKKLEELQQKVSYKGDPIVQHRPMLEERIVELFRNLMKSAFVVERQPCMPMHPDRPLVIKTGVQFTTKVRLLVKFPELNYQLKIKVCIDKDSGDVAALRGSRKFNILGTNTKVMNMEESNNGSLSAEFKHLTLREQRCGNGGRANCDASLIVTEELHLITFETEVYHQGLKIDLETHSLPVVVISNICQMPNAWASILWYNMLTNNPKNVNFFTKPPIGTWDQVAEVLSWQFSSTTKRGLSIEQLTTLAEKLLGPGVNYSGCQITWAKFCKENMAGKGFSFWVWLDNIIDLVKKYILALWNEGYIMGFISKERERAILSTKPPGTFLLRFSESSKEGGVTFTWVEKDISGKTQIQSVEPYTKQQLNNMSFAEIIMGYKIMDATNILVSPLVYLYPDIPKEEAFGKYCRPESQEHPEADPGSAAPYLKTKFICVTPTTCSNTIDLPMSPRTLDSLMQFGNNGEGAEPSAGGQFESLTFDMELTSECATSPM
In short: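 LNCaP cells stably carrying pSTAT3-TA-luc, in RPMI1640 with 3% DCC-FBS, were treated with compound and then stimulated with 10 ng/mL IL-6 for 24–48 h at 37 °C. Luciferase activity was measured in lysates. A parallel plate measured viability by CellTiter-Glo, with stimulated 0.1% DMSO wells as the positive control.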

AGS = experiment: Cell growth inhibition assay, stomach cancer cell line AGS; details: Homo sapiens; AGS stomach cancer cell line, 3,000 cells/well
Procedure: The inhibitory effects of the compounds of the present invention against the growth of cancer cells were evaluated as shown below. The cancer cell lines including stomach cancer cell line (AGS), breast cancer cell lines (MDA-MB-231, MDA-MB-468, and BT-549), prostate cancer cell lines (LNCaP and DU-145), colon cancer cell line (HCT116), ovarian cancer cell line (SW626), liver cancer cell line (Hep3B), kidney cancer cell line (ACHN), lung cancer cell line (NCI-H23) and blood cancer cell lines (HEL92.1.7 and U266) were cultured under the protocol provided by each supplier. A medium supplemented with 10 ng/mL of IL-6 was used for LNCaP, a prostate cancer cell line, when treated with a drug. Each type of cells to be used in experiments were sub-cultured in a 96-well plate by counting the exact number of cells using Tali™ Image-based Cytometer (Life Technologies). In a 96-well plate, AGS, HCT116, and DU-145 were employed with 3,000 cells/well; NCI-H23, SW626, Hep3B, ACHN, BT-549, MDA-MB-231, HEL92.1.7, and U266 were employed with 5,000 cells/well; and LNCaP and MDA-MB-468 were employed with 10,000 cells/well. The cells were treated with the compounds listed in Examples which were diluted in various concentrations. Upon completion of the compounds treatment, AGS, HCT116, SW626, DU145, NCI-H23, Hep3B, ACHN, BT-549, LNCaP, HEL92.1.7, and U266 cells were cultured at 37° C. under 5% CO2 for from 72 to 96 hours, and MDA-MB-231 and MDA-MB-468 cells were cultured at 37° C. in air for from 72 to 96 hours. Subsequently, the cells were observed under microscope and drug precipitation and particular findings were investigated and recorded. And then, the 96-well plate was placed at room temperature for 30 minutes, added with 20 μL/well of CellTiter-Glo solution (Cat No. G7573, Promega) and shaken for 10 minutes, followed by being subjected to the measurement using PHERAstar™ microplate reader (BMG LABTECH) according to the supplier's general luminometer protocol. Wells where only culture liquid added without cell plating were used as a negative control, whereas wells where culture liquid containing 0.1% DMSO instead of the compounds listed in Examples were used as a positive control.

Row | SMILES | IC50 (LNCaP) [µM] | IC50 (STAT3) [µM] | IC50 (AGS) [µM]
1 | O=C(Nc1cccc(-c2ccc(F)cc2F)c1)c1nc2cc([N+](=O)[O-])ccc2[nH]1 [Example 233, N-(2′,4′-difluoro-[1,1′-biphenyl]-3-yl)-5-nitro-1H-benzo[d]imidazole-2-carboxamide] | > 10 | > 10 | > 50
2 | O=C(O)COc1ccc2cc(C(=O)Nc3cccc(-c4ccc(F)cc4F)c3)[nH]c2c1 [Example 256, 2-((2-((2′,4′-difluoro-[1,1′-biphenyl]-3-yl)carbamoyl)-1H-indol-6-yl)oxy)acetic acid] | > 10 | > 10 | > 50
3 | CC(C)COc1cc(NC(=O)c2cc3ccc(NS(C)(=O)=O)cc3[nH]2)cc(C(F)(F)c2cccc(C#N)c2)c1 [Example 392, N-(3-((3-cyanophenyl)difluoromethyl)-5-isobutoxyphenyl)-6-(methylsulfonamido)-1H-indole-2-carboxamide] | 8.3 | 1.8 | 9
4 | O=C(Nc1cccc(-c2ccccc2C(F)(F)F)c1)c1cc2ccc(NS(=O)(=O)C(F)(F)F)cc2[nH]1 [Example 268, N-(2′-(trifluoromethyl)-[1,1′-biphenyl]-3-yl)-6-(trifluoromethylsulfonamido)-1H-indole-2-carboxamide] | > 10 | > 10 | 27.1
5 | COc1ccc(C(F)(F)F)c(-c2cccc(NC(=O)c3cc4ccc(NS(C)(=O)=O)cc4[nH]3)c2)c1 [Example 281, N-(5′-methoxy-2′-(trifluoromethyl)-[1,1′-biphenyl]-3-yl)-6-(methylsulfonamido)-1H-indole-2-carboxamide] | > 10 | 7.1 | 16.6
6 | CS(=O)(=O)Nc1ccc2cc(C(=O)Nc3cccc(-c4ccc(N)cc4C(F)(F)F)c3)[nH]c2c1 [Example 385, N-(4′-amino-2′-(trifluoromethyl)-[1,1′-biphenyl]-3-yl)-6-(methylsulfonamido)-1H-indole-2-carboxamide] | > 10 | 4.3 | 26.3
7 | O=C(Nc1cccc(-c2cccnc2C(F)(F)F)c1)c1cc2ccc([N+](=O)[O-])cc2[nH]1 [Example 292, 6-nitro-N-(3-(2-(trifluoromethyl)pyridin-3-yl)phenyl)-1H-indole-2-carboxamide] | > 10 | > 10 | 43.7
8 | Cc1nc2ccc(S(=O)(=O)c3cccc(NC(=O)c4cc5ccc(NS(C)(=O)=O)cc5[nH]4)c3)cc2s1 [Example 410, N-(3-((2-methylbenzo[d]thiazol-6-yl)sulfonyl)phenyl)-6-(methylsulfonamido)-1H-indole-2-carboxamide] | > 10 | 3.1 | 31.3
9 | O=C(Nc1cccc(-c2ccc(F)cc2C(F)(F)F)c1)c1nc2cc([N+](=O)[O-])ccc2[nH]1 [Example 235, N-(4′-fluoro-2′-(trifluoromethyl)-[1,1′-biphenyl]-3-yl)-5-nitro-1H-benzo[d]imidazole-2-carboxamide] | > 10 | > 10 | 37
10 | COc1cncc(S(=O)(=O)c2cccc(NC(=O)c3cc4ccc(NS(C)(=O)=O)cc4[nH]3)c2)c1 [Example 407, N-(3-((5-methoxypyridin-3-yl)sulfonyl)phenyl)-6-(methylsulfonamido)-1H-indole-2-carboxamide] | > 10 | 5.7 | 45.5
11 | Cc1c(C(=O)Nc2cccc(-c3ccccc3C(F)(F)F)c2)n(CCN2CCOCC2)c2ccc([N+](=O)[O-])cc12 [Example 251, 3-methyl-1-(2-morpholinoethyl)-5-nitro-N-(2′-(trifluoromethyl)-[1,1′-biphenyl]-3-yl)-1H-indole-2-carboxamide] | > 10 | > 10 | 26.7
12 | CNc1ccc(-c2cccc(NC(=O)c3cc4ccc(NS(C)(=O)=O)cc4[nH]3)c2)c(C(F)(F)F)c1 [Example 386, N-(4′-(methylamino)-2′-(trifluoromethyl)-[1,1′-biphenyl]-3-yl)-6-(methylsulfonamido)-1H-indole-2-carboxamide] | 8 | 3.4 | 7.6
13 | COC(=O)c1ccc(C(F)(F)F)c(-c2cccc(NC(=O)c3cc4ccc([N+](=O)[O-])cc4[nH]3)c2)c1 [Example 286, methyl 3′-(6-nitro-1H-indole-2-carboxamido)-6-(trifluoromethyl)-[1,1′-biphenyl]-3-carboxylate] | > 10 | > 10 | 10.2
14 | COc1ccc(C(F)(F)F)c(-c2cccc(NC(=O)c3cc4ccc([N+](=O)[O-])cc4[nH]3)c2)c1 [Example 282, N-(5′-methoxy-2′-(trifluoromethyl)-[1,1′-biphenyl]-3-yl)-6-nitro-1H-indole-2-carboxamide] | > 10 | > 10 | 23.8
15 | CN(C)S(=O)(=O)Nc1ccc2cc(C(=O)Nc3cccc(-c4ccc(F)cc4F)c3)[nH]c2c1 [Example 276, N-(2′,4′-difluoro-[1,1′-biphenyl]-3-yl)-6-((N,N-dimethylsulfamoyl)amino)-1H-indole-2-carboxamide] | 1.3 | 3.1 | 11.9
16 | COc1ccc(-c2cccc(NC(=O)c3cc4ccc([N+](=O)[O-])cc4[nH]3)c2)c(F)c1 [Example 295, N-(2′-fluoro-4′-methoxy-[1,1′-biphenyl]-3-yl)-6-nitro-1H-indole-2-carboxamide] | > 10 | > 10 | > 50
17 | O=C(Nc1cccc(-c2ccccc2C(F)(F)F)c1)c1cc2ccc([N+](=O)[O-])cc2n1CCN1CCOCC1 [Example 252, 1-(2-morpholinoethyl)-6-nitro-N-(2′-(trifluoromethyl)-[1,1′-biphenyl]-3-yl)-1H-indole-2-carboxamide] | > 10 | > 10 | 11.4
18 | CS(=O)(=O)Nc1ccc2cc(C(=O)Nc3cccc(S(=O)(=O)c4cccc(Cl)c4)c3)[nH]c2c1 [Example 405, N-(3-((3-chlorophenyl)sulfonyl)phenyl)-6-(methylsulfonamido)-1H-indole-2-carboxamide] | 8.6 | 2.4 | 14.6
19 | COC(=O)c1ccc(C(F)(F)F)c(-c2cccc(NC(=O)c3cc4ccc(NS(C)(=O)=O)cc4[nH]3)c2)c1 [Example 287, methyl 3′-(6-(methylsulfonamido)-1H-indole-2-carboxamido)-6-(trifluoromethyl)-[1,1′-biphenyl]-3-carboxylate] | > 10 | > 10 | 23.6
20 | O=C(Nc1cccc(-c2ccc(F)cc2F)c1)c1cc2ccc([N+](=O)[O-])cc2[nH]1 [Example 225, N-(2′,4′-difluoro-[1,1′-biphenyl]-3-yl)-6-nitro-1H-indole-2-carboxamide] | > 10 | > 10 | > 50
21 | CS(=O)(=O)Nc1ccc2cc(C(=O)Nc3cccc(C(F)(F)c4ccccn4)c3)[nH]c2c1 [Example 389, N-(3-(difluoro(pyridin-2-yl)methyl)phenyl)-6-(methylsulfonamido)-1H-indole-2-carboxamide] | 9.1 | 5.8 | 20.3
22 | O=C(Nc1cccc(-c2ccc(F)cc2F)c1)C1Cc2ccc([N+](=O)[O-])cc2N1 (stereo not drawn) [Example 231, N-(2′,4′-difluoro-[1,1′-biphenyl]-3-yl)-6-nitroindoline-2-carboxamide] | > 10 | 2.9 | 19.3
23 | CS(=O)(=O)Nc1ccc2cc(C(=O)Nc3cc(-c4cc(C(N)=O)ccc4Cl)ccn3)[nH]c2c1 [Example 381, N-(4-(5-carbamoyl-2-chlorophenyl)pyridin-2-yl)-6-(methylsulfonamido)-1H-indole-2-carboxamide] | > 10 | > 10 | > 50
24 | CN(C)S(=O)(=O)Nc1ccc2cc(C(=O)Nc3cccc(-c4ccccc4C(F)(F)F)c3)[nH]c2c1 [Example 267, 6-((N,N-dimethylsulfamoyl)amino)-N-(2′-(trifluoromethyl)-[1,1′-biphenyl]-3-yl)-1H-indole-2-carboxamide] | 3.2 | 2 | 9.2
